Data published in patent US20250188095A1, “DISUBSTITUTED OCTAHYDROPYRROLO[3,4-c]PYRROLYL METHYL KETONE DERIVATIVE AND USE THEREOF” (JIANGSU NHWA PHARMACEUTICAL CO., LTD, priority 2022, published 2025).
pIC50: −log10 of the molar value.

How the values were obtained:
OX1 receptor = OX1 receptor (Homo sapiens (Human), UniProt O43613); experiment: In vitro activity test (Cisbio IP-one, CHO-K1-OX1 cells, antagonism of EC80 Orexin A); type: cell-based
Experimental: (§1) (1) Preparation of a reaction buffer (1×Stimulation buffer) required for the experiment: The 5×Stimulation buffer and ddH2O in the Cisbio IP-one kit were diluted in a ratio of 1:4 for later use.
(§2) (2) Compound preparation: The compound was diluted with DMSO to obtain a 5 mM stock solution, followed by a 3.16-fold dilution to obtain 10 gradients, and then the prepared compound was diluted with the Stimulation buffer to the corresponding concentrations (4×) for later use.
(§3) (3) Cell preparation: CHO-K1-OX1 and CHO-K1-OX2 cells on the culture dish were digested with trypsin, and the cells were washed off with culture medium and collected into 5 mL centrifuge tubes. The cells were centrifuged at 1000 rpm for 5 min, and the supernatant was discarded. 3 mL of PBS was added, and the mixture was gently pipetted to be mixed well. The cells were centrifuged again at 1000 rpm for 5 min, and the supernatant was discarded. The cells were resuspended in 1×Stimulation buffer and counted using a Countstar cell counter, and the cell density was adjusted to 1.71×10^6 cells/mL for later use.
(§4) (4) Cell addition: The cell suspensions were added to assay plates at 7 μL/well (i.e., about 12,000 cells/well).
(§5) (5) Compound addition: The compound diluted with the Stimulation buffer was added to the assay plates described above at 3.5 μL/well.
(§6) (6) Reaction and incubation: After gentle shaking, the assay plates were incubated at 37° C. for 30 min.
(§7) (7) EC80 agonist addition: 4×Orexin A (OX1 receptor) and 4×Orexin 2 receptor agonist (OX2 receptor) solutions of EC80 were added at 3.5 μL/well.
(§8) (8) Reaction and incubation: After gentle shaking, the assay plates were incubated at 37° C. for 45 min.
(§9) (9) Detection reagent addition: IP1-d2 and Anti-IP1 cryptate were separately diluted in a 1:20 ratio with the Lysis & detection buffer in the Cisbio IP-one detection kit, and the diluted IP1-d2 and Anti-IP1 cryptate described above were added to the assay plates, each at 3 μL/well. After shaking, the assay plates were left to stand at room temperature for 60 min.
(§10) (10) Experimental readings: The plate was read on Envision, readings from the 665 nm and 615 nm channels were taken, and the ratio of 665 nm/615 nm readings was calculated.
(§11) Based on the antagonistic effect values of the compound sample at different concentration test points, antagonistic curves of the compound sample against the orexin receptors were fitted using GraphPad Prism software, and the IC50 was calculated.

OX2 receptor = OX2 receptor (Homo sapiens (Human), UniProt O43614); experiment: In vitro activity test (Cisbio IP-one, CHO-K1-OX2 cells, antagonism of EC80 agonist); type: cell-based
OX2 receptor, sequence (O43614 whole entry): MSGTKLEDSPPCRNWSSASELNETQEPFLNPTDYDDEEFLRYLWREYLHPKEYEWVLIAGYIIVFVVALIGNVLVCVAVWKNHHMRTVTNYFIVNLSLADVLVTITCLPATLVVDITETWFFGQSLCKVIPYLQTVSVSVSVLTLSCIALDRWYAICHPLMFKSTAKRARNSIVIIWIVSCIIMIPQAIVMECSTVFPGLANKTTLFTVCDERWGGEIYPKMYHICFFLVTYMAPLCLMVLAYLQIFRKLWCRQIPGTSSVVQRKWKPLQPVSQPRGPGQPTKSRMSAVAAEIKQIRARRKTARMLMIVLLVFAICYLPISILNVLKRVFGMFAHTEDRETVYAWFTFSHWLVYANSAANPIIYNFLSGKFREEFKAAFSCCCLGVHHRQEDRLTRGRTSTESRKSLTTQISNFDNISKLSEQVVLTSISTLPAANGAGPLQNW
Experimental: as §1, §2, §3, §4, §5, §6, §7, §8, §9, §10, §11

ICR mice [1] = experiment: Pentobarbital sodium synergistic sleep test; type: in vivo; settings: male ICR mice, pentobarbital sodium 45 mg/kg ip, Mean±SD
Experimental: Male ICR mice aged 6-9 weeks were randomly divided into groups based on body weight balance, with 8 mice per group, and the groups were given blank vehicle and 3, 10, and 30 mg/kg of the test compound, respectively. After 5 min, pentobarbital sodium was intraperitoneally injected at 45 mg/kg. The moments when righting reflexes disappeared and the moments when righting reflexes reappeared in mice were recorded. Sleep latency=moment when righting reflex disappeared−moment when pentobarbital sodium was administered, and sleep duration=moment when righting reflex reappeared−moment when righting reflex disappeared. […] Experimental data were expressed as mean±standard deviation (Mean±SD). One-way ANOVA analysis was performed using SPSS 21.0 statistical software, and pairwise comparisons were performed using Dunnett's test, with p<0.05 represented by *.

ICR mice [2] = experiment: Autonomous activities of mice; type: in vivo; settings: male ICR mice; for Inhibition rate (%): vs vehicle; for Movement distance (m): within 60 min, Mean±SD
Experimental: Male ICR mice aged 6-9 weeks were randomly divided into groups based on body weight balance, with 8 or 9 mice per group, and the groups were given blank vehicle and 10, 30, and 100 mg/kg of the test compound, respectively. The animals were placed in a test chamber immediately after administration, and the activity distances of the animals within 60 min were recorded and analyzed with Top Scan Version 3.0. […] Experimental data were expressed as mean±standard deviation (Mean±SD). One-way ANOVA analysis was performed using SPSS 21.0 statistical software, and pairwise comparisons were performed using Dunnett's test, with p<0.05 represented by *.

[3] = Rat pharmacokinetic parameters in rat plasma; type: in vivo; settings: male SD rats; for bioavailability: PO 10 mg/kg vs iv 1 mg/kg, read-out: F (%) oral bioavailability
Experimental: Healthy male SD rats aged 6-9 weeks were selected and randomly divided into two groups, with 3 rats in each group. One group was given 1 mg/kg of the test compound by intravenous injection, and the other group was given 10 mg/kg of the test compound by gavage. Whole blood was collected from the animals in the intravenous group and the gavage group before administration and 0.083, 0.25, 0.5, 1.0, 2.0, 4.0, 7.0, 10.0, and 24.0 h after administration and centrifuged to obtain plasma samples.
All biological samples were quantitatively analyzed using the LC-MS/MS method. Pharmacokinetic parameters were calculated using the non-compartmental model linear-log trapezoidal method using WinNonlinTMVersion7.0 (Pharsight, Mountain View, CA) pharmacokinetic software. AUC0-last represents the area under the plasma concentration-time curve from time point zero to the last detectable concentration time point; PO represents oral administration; iv represents intravenous, Cmax represents the peak concentration, and F % represents oral bioavailability.

OX1 receptor, sequence (O43613 whole entry): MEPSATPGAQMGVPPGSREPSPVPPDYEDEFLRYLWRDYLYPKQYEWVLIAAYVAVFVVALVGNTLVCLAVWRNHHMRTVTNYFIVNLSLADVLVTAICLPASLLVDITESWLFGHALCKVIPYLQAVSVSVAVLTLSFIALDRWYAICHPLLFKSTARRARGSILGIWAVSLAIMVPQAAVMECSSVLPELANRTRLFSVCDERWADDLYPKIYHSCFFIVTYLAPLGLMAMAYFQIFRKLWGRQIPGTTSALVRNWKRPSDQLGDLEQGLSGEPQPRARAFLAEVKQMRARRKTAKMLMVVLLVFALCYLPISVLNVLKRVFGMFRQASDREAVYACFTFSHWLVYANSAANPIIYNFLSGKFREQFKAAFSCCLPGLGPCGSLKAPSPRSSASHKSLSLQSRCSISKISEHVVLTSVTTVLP

Row | pIC50 (OX1 receptor) | pIC50 (OX2 receptor) | AUC(0-t) ([3]; PO 10 mg/kg) [ng·h/mL] | Cmax ([3]; PO 10 mg/kg) [ng/mL] | bioavailability [3] [%] | AUC(0-t) ([3]; iv 1 mg/kg) [ng·h/mL] | Cmax ([3]; iv 1 mg/kg) [ng/mL] | Structure (SMILES) | Sleep duration (ICR mice [1]; 3 mg/kg) [min] | Sleep latency (ICR mice [1]; 3 mg/kg) [min] | Sleep duration (ICR mice [1]; 10 mg/kg) [min] | Sleep latency (ICR mice [1]; 10 mg/kg) [min] | Sleep duration (ICR mice [1]; 30 mg/kg) [min] | Sleep latency (ICR mice [1]; 30 mg/kg) [min] | Inhibition rate (%) (ICR mice [2]; 10 mg/kg) | Movement distance (m) (ICR mice [2]; 10 mg/kg) | Inhibition rate (%) (ICR mice [2]; 30 mg/kg) | Movement distance (m) (ICR mice [2]; 30 mg/kg) | Inhibition rate (%) (ICR mice [2]; 100 mg/kg) | Movement distance (m) (ICR mice [2]; 100 mg/kg)
1 | < 6.00 | > 7.00 | – | – | – | – | – | Cc1cc(C)nc(N2C[C@H]3CN(C(=O)c4c(-c5cccnc5)nn5ccccc45)C[C@H]3C2)n1 [Example 36, [(3aR,6aS)-5-(4,6-dimethylpyrimidin-2-yl)hexahydropyrrolo[3,4-c]pyrrol-2(1H)-yl][2-(pyridin-3-yl)pyrazolo[1,5-a]pyridin-3-yl]methanone] | 50.35 ± 9.35 | 10.21 ± 4.49 | 38.89 ± 10.66 | 10.58 ± 5.65 | 56.19 ± 27.74 | 8.84 ± 3.67 | 32.08 | 44.27 ± 13.76 | 34.37 | 42.78 ± 20.27 | 57.33 | 27.81 ± 19.12
2 | < 6.00 | > 7.00 | – | – | – | – | – | Cc1cc(C)nc(N2C[C@H]3CN(C(=O)c4c(-c5cccs5)nn5cc(F)ccc45)C[C@H]3C2)n1 [Example 37, [(3aR,6aS)-5-(4,6-dimethylpyrimidin-2-yl)hexahydropyrrolo[3,4-c]pyrrol-2(1H)-yl][6-fluoro-2-(thiophen-2-yl)pyrazolo[1,5-a]pyridin-3-yl]methanone] | – | – | – | – | – | – | 5.03 | 61.90 ± 16.82 | 37.27 | 40.89 ± 21.03 | 39.52 | 39.42 ± 13.92
3 | < 6.00 | > 7.00 | 2000 | 2780 | 56.3 | 355 | 875 | Cc1cc(C)nc(N2C[C@H]3CN(C(=O)c4c(-c5ncccc5F)cn5ccccc45)C[C@H]3C2)n1 [Example 3, ((3aR,6aS)-5-(4,6-dimethylpyrimidin-2-yl)hexahydropyrrolo[3,4-c]pyrrol-2(1H)-yl)(2-(3-fluoropyridin-2-yl)indolizin-1-yl)methanone] | 57.88 ± 23.72 | 15.21 ± 4.60 | 62.73 ± 29.84 | 17.72 ± 6.04 | 63.15 ± 34.38 | 24.28 ± 8.97 | −5.22 | 68.58 ± 24.42 | 9.82 | 58.78 ± 18.31 | 40.63 | 38.69 ± 13.98
4 | < 6.00 | > 7.00 | 353 | 668 | 24.6 | 143 | 439 | Cc1cc(C)nc(N2C[C@H]3CN(C(=O)c4c(-c5ccccn5)nn5cc(F)ccc45)C[C@H]3C2)n1 [Example 30, ((3aR,6aS)-5-(4,6-dimethylpyrimidin-2-yl)hexahydropyrrolo[3,4-c]pyrrol-2(1H)-yl)(6-fluoro-2-(pyridin-2-yl)pyrazolo[1,5-a]pyridin-3-yl)methanone] | 62.34 ± 17.87 | 5.03 ± 0.51 | 66.79 ± 14.88 | 5.17 ± 0.81 | 65.61 ± 19.83 | 6.52 ± 5.25 | – | – | – | – | – | –
5 | < 6.00 | > 7.00 | 560 | 925 | 25.3 | 221 | 715 | Cc1cc(C)nc(N2C[C@H]3CN(C(=O)c4c(-c5ccncc5)nn5ccccc45)C[C@H]3C2)n1 [Example 34, ((3aR,6aS)-5-(4,6-dimethylpyrimidin-2-yl)hexahydropyrrolo[3,4-c]pyrrol-2(1H)-yl)(2-(pyridin-4-yl)pyrazolo[1,5-a]pyridin-3-yl)methanone] | – | – | – | – | – | – | 8.19 | 59.84 ± 19.89 | 28.13 | 46.84 ± 16.61 | 50.36 | 32.36 ± 20.35

Row | Structure (SMILES) | pIC50 (OX1 receptor) | pIC50 (OX2 receptor) | AUC(0-t) ([3]; PO 10 mg/kg) [ng·h/mL] | Cmax ([3]; PO 10 mg/kg) [ng/mL] | bioavailability [3] [%] | AUC(0-t) ([3]; iv 1 mg/kg) [ng·h/mL] | Cmax ([3]; iv 1 mg/kg) [ng/mL] | Sleep duration (ICR mice [1]; 3 mg/kg) [min] | Sleep latency (ICR mice [1]; 3 mg/kg) [min] | Sleep duration (ICR mice [1]; 10 mg/kg) [min] | Sleep latency (ICR mice [1]; 10 mg/kg) [min] | Sleep duration (ICR mice [1]; 30 mg/kg) [min] | Sleep latency (ICR mice [1]; 30 mg/kg) [min] | Inhibition rate (%) (ICR mice [2]; 10 mg/kg) | Movement distance (m) (ICR mice [2]; 10 mg/kg) | Inhibition rate (%) (ICR mice [2]; 30 mg/kg) | Movement distance (m) (ICR mice [2]; 30 mg/kg) | Inhibition rate (%) (ICR mice [2]; 100 mg/kg) | Movement distance (m) (ICR mice [2]; 100 mg/kg)
6 | Cc1cc(C)nc(N2C[C@H]3CN(C(=O)c4c(-c5cccs5)nn5ccccc45)C[C@H]3C2)n1 [Example 5, ((3aR,6aS)-5-(4,6-dimethylpyrimidin-2-yl)hexahydropyrrolo[3,4-c]pyrrol-2(1H)-yl)(2-(thiophen-2-yl)pyrazolo[1,5-a]pyridin-3-yl)methanone] | < 6.00 | > 7.00 | – | – | – | – | – | – | – | – | – | – | – | 2.37 | 63.64 ± 33.70 | 46.97 | 34.56 ± 10.71 | 49.17 | 33.13 ± 14.64
